Measured values taken from US20240018147A1, “SALT OF COMPOUND FOR DEGRADING BTK, CRYSTAL FORM THEREOF, AND USE THEREOF IN MEDICINE” (HAISCO PHARMACEUTICALS PTE. LTD., priority 2020, published 2024).
In brackets after ≈: the same amount, converted by molar mass.

Assays:
[1] = Crystal slurrying competition experiment of crystal forms; assay type: physicochemical; settings: room temperature; for relative stability of crystal forms from competition experiments: conclusion in words
Protocol: 6.2. Competitive experiments of crystal forms I, II and III of compound 1 were performed at room temperature to investigate the stability of the crystal forms in isopropyl acetate and a water/acetonitrile (v/v=1:1) solvent, and Competitive experiments of the crystal forms I and II of compound 3 were performed at room temperature to investigate the stability of the crystal forms in an ethanol/water (v/v=1:1) solvent and an acetone/water (v/v=1:1) solvent.

[2] = Pharmacokinetic test of dogs; assay type: in vivo; settings: Beagle dogs; for Having bioavailability or not / AUC(0-t): i.g. (10 mg/kg); for AUC(0-t): male, dog, po, plasma
Protocol: Experimental objective: in this experiment, a single dose of each test compound was administered to Beagle dogs intravenously and intragastrically, the concentrations of the test compounds in plasma of dogs were measured, and the pharmacokinetic characteristics and bioavailability of the test compounds in dogs were evaluated.
Experimental animal: male Beagle dogs (about 8-11 kg, […], 6 dogs/compound), purchased from Beijing Marshall Biotechnology Co. Ltd.
The animals were fasted but with water available for 14 to 18 hours one day before administration, and were fed 4 hours after administration.
Sampling: before and after administration, 1.0 ml of blood was taken from jugular veins, and placed in an EDTAK2 centrifuge tube. Centrifugation was carried out at 5000 rpm at 4° C. for 10 m, and the plasma was collected.
Time points for plasma collection in G1& G2 groups: 0, 5 min, 15 min, 30 mi 1 h, 2 h, 4 h, 6 h, 8 h, 10 h, […] and 24 h.
Before analysis and detection, all samples were stored at −80° C. The samples were detected by using HPLC-MS/MS.

[3] = Solubility in water at 25° C.; assay type: physicochemical
Protocol: 7. Solubility Data in Water at 25° C.

[4] = Chemical stability at high temperature (40° C.) and high humidity (RH 92.5%), purity by HPLC; assay type: physicochemical; settings: for Purity by HPLC, 0 day: 0 day (initial); for chemical stability: 40° C. and RH 92.5%, purity by HPLC, conclusion in words; for Purity by HPLC, 92.5% RH 30 days: high humidity 92.5% RH; for Purity by HPLC, 40° C. 30 days: high temperature 40° C.
Protocol: Samples were taken and tested at high temperature (40° C.) and under high humidity (RH 92.5%) respectively. The purity (represented by a percentage) was detected by HPLC.
With regard to methods for preparing test solutions and conditions for detecting purity by HPLC, reference was made to Tables 13, 14 and 15.

[5] = Stability of crystal form of compound 1 and compound 3 (XRD); assay type: physicochemical; settings: conclusion in words
Description: 6.1. Stability of crystal form of compound 1 and compound 3.

[6] = listed as Amorphous form of compound 1
[7] = listed as Crystal form III of compound 1

improvement of solubility as compared with compound 1 [3]	solubility [3] [µg/mL]	Having bioavailability or not [2]	increase of oral exposure amount as compared with compound 1 [2]	AUC(0-t) [2] [ng·h/mL]	chemical stability [4]	Compound	also measured
more than 15 times	158	–	–	–	–	Nc1ncnc2c1c(-c1ccc(Oc3ccccc3)cc1)nn2C1CCN(C2CN(C3CN(c4ccc5c(c4)C(=O)N(C4CCC(=O)NC4=O)C5=O)C3)C2)CC1.O=C(O)C[C@H](O)C(=O)O [Compound 4, 5-[3-[3-[4-[4-amino-3-(4-phenoxyphenyl)pyrazolo[3,4-d]pyrimidin-1-yl]-1-piperidyl]azetidin-1-yl]azetidin-1-yl]-2-(2,6-dioxo-3-piperidyl)isoindoline-1,3-dione L-malate]	–
more than 15 times	143	Yes	more than 2 times	95.5 ± 65	–	Nc1ncnc2c1c(-c1ccc(Oc3ccccc3)cc1)nn2C1CCN(C2CN(C3CN(c4ccc5c(c4)C(=O)N(C4CCC(=O)NC4=O)C5=O)C3)C2)CC1.O=C(O)C(O)C(O)C(=O)O [Compound 7, 5-[3-[3-[4-[4-amino-3-(4-phenoxyphenyl)pyrazolo[3,4-d]pyrimidin-1-yl]-1-piperidyl]azetidin-1-yl]azetidin-1-yl]-2-(2,6-dioxo-3-piperidyl)isoindoline-1,3-dione L-tartrate]	–
more than 15 times	346	Yes	more than 2 times	79.4 ± 20	relatively good chemical stability	Nc1ncnc2c1c(-c1ccc(Oc3ccccc3)cc1)nn2C1CCN(C2CN(C3CN(c4ccc5c(c4)C(=O)N(C4CCC(=O)NC4=O)C5=O)C3)C2)CC1.O=C(O)C(=O)O (stereo not shown) [Compound 9, 5-[3-[3-[4-[4-amino-3-(4-phenoxyphenyl)pyrazolo[3,4-d]pyrimidin-1-yl]-1-piperidyl]azetidin-1-yl]azetidin-1-yl]-2-(2,6-dioxo-3-piperidyl)isoindoline-1,3-dione oxalate]	Purity by HPLC, 0 day [4]: 98.67%; Purity by HPLC, 92.5% RH 30 days [4]: 98.28%

The remaining lines, values behind:

Compound	improvement of solubility as compared with compound 1 [3]	solubility [3] [µg/mL]	Having bioavailability or not [2]	increase of oral exposure amount as compared with compound 1 [2]	AUC(0-t) [2] [ng·h/mL]	chemical stability [4]	also measured
Nc1ncnc2c1c(-c1ccc(Oc3ccccc3)cc1)nn2C1CCN(C2CN(C3CN(c4ccc5c(c4)C(=O)N(C4CCC(=O)NC4=O)C5=O)C3)C2)CC1.O=C(O)/C=C\C(=O)O.O=C(O)/C=C\C(=O)O (stereo not shown)	–	–	–	–	–	–	Experimental XRD result after crystal slurrying competition ([1]; acetone/water (v/v = 1:1), 3 days): Crystal form I; Experimental XRD result after crystal slurrying competition ([1]; ethanol/water (v/v = 1:1), 3 days): Crystal form I
Nc1ncnc2c1c(-c1ccc(Oc3ccccc3)cc1)nn2C1CCN(C2CN(C3CN(c4ccc5c(c4)C(=O)N(C4CCC(=O)NC4=O)C5=O)C3)C2)CC1 (stereo not shown) [5-[3-[3-[4-[4-amino-3-(4-phenoxyphenyl)pyrazolo[3,4-d]pyrimidin-1-yl]-1-piperidyl]azetidin-1-yl]azetidin-1-yl]-2-(2,6-dioxo-3-piperidyl)isoindoline-1,3-dione]	–	–	–	–	–	–	Experimental XRD result after crystal slurrying competition ([1]; isopropyl acetate, 2 days): Crystal form III; Experimental XRD result after crystal slurrying competition ([1]; water/acetonitrile (v/v = 1:1), 2 days): Crystal form III
Nc1ncnc2c1c(-c1ccc(Oc3ccccc3)cc1)nn2C1CCN(C2CN(C3CN(c4ccc5c(c4)C(=O)N(C4CCC(=O)NC4=O)C5=O)C3)C2)CC1 (stereo not shown) [Compound 1, 5-[3-[3-[4-[4-amino-3-(4-phenoxyphenyl)pyrazolo[3,4-d]pyrimidin-1-yl]-1-piperidyl]azetidin-1-yl]azetidin-1-yl]-2-(2,6-dioxo-3-piperidyl)isoindoline-1,3-dione]	–	–	–	–	–	–	oral bioavailability in dogs ([2]; intragastric vs intravenous, conclusion in words): a certain level of oral bioavailability; solubility in water ([3]; conclusion in words): a certain level of solubility
Nc1ncnc2c1c(-c1ccc(Oc3ccccc3)cc1)nn2C1CCN(C2CN(C3CN(c4ccc5c(c4)C(=O)N(C4CCC(=O)NC4=O)C5=O)C3)C2)CC1.O=C(O)CC(O)(CC(=O)O)C(=O)O (stereo not shown) [Compound 5, 5-[3-[3-[4-[4-amino-3-(4-phenoxyphenyl)pyrazolo[3,4-d]pyrimidin-1-yl]-1-piperidyl]azetidin-1-yl]azetidin-1-yl]-2-(2,6-dioxo-3-piperidyl)isoindoline-1,3-dione citrate]	more than 15 times	166	Yes	more than 2 times	59.5 ± 21	relatively good chemical stability	Purity by HPLC, 0 day [4]: 98.44%; Purity by HPLC, 92.5% RH 30 days [4]: 98.05%
Nc1ncnc2c1c(-c1ccc(Oc3ccccc3)cc1)nn2C1CCN(C2CN(C3CN(c4ccc5c(c4)C(=O)N(C4CCC(=O)NC4=O)C5=O)C3)C2)CC1 (stereo not shown) [amorphous form of compound 1, 5-[3-[3-[4-[4-amino-3-(4-phenoxyphenyl)pyrazolo[3,4-d]pyrimidin-1-yl]-1-piperidyl]azetidin-1-yl]azetidin-1-yl]-2-(2,6-dioxo-3-piperidyl)isoindoline-1,3-dione]	–	9 (≈ 12 µM)	Yes	–	26.9 ± 3.3	relatively good chemical stability	Purity by HPLC, 0 day [4, 6]: 98.88%; Purity by HPLC, 92.5% RH 30 days [4, 6]: 98.82%; Purity by HPLC, 40° C. 30 days [4, 6]: 98.85%; stability of crystal form [5]: relatively good stability
Nc1ncnc2c1c(-c1ccc(Oc3ccccc3)cc1)nn2C1CCN(C2CN(C3CN(c4ccc5c(c4)C(=O)N(C4CCC(=O)NC4=O)C5=O)C3)C2)CC1.O=C(O)/C=C\C(=O)O.O=C(O)/C=C\C(=O)O (stereo not shown) [amorphous form of compound 3, 5-[3-[3-[4-[4-amino-3-(4-phenoxyphenyl)pyrazolo[3,4-d]pyrimidin-1-yl]-1-piperidyl]azetidin-1-yl]azetidin-1-yl]-2-(2,6-dioxo-3-piperidyl)isoindoline-1,3-dione dimaleate]	–	–	–	–	–	–	stability of crystal form [5]: relatively good stability
Nc1ncnc2c1c(-c1ccc(Oc3ccccc3)cc1)nn2C1CCN(C2CN(C3CN(c4ccc5c(c4)C(=O)N(C4CCC(=O)NC4=O)C5=O)C3)C2)CC1.O=C(O)/C=C\C(=O)O.O=C(O)/C=C\C(=O)O (stereo not shown) [crystal form I of compound 3, 5-[3-[3-[4-[4-amino-3-(4-phenoxyphenyl)pyrazolo[3,4-d]pyrimidin-1-yl]-1-piperidyl]azetidin-1-yl]azetidin-1-yl]-2-(2,6-dioxo-3-piperidyl)isoindoline-1,3-dione dimaleate]	more than 15 times	172	Yes	more than 2 times	75.1 ± 50	relatively good chemical stability	Purity by HPLC, 0 day [4]: 99.85%; Purity by HPLC, 92.5% RH 30 days [4]: 99.76%; Purity by HPLC, 40° C. 30 days [4]: 99.74%; relative stability of crystal forms from competition experiments [1]: most stable crystal form
Nc1ncnc2c1c(-c1ccc(Oc3ccccc3)cc1)nn2C1CCN(C2CN(C3CN(c4ccc5c(c4)C(=O)N(C4CCC(=O)NC4=O)C5=O)C3)C2)CC1 (stereo not shown) [crystal form III of compound 1, 5-[3-[3-[4-[4-amino-3-(4-phenoxyphenyl)pyrazolo[3,4-d]pyrimidin-1-yl]-1-piperidyl]azetidin-1-yl]azetidin-1-yl]-2-(2,6-dioxo-3-piperidyl)isoindoline-1,3-dione]	–	–	–	–	–	–	Purity by HPLC, 0 day [4, 7]: 99.41%; Purity by HPLC, 92.5% RH 30 days [4, 7]: 99.30%; Purity by HPLC, 40° C. 30 days [4, 7]: 99.28%; relative stability of crystal forms from competition experiments [1]: most stable crystal form
